Measured values published in US20230295068A1, “NOVEL CYCLOALKENONE COMPOUND OR SALT THEREOF” (TAIHO PHARMACEUTICAL CO., LTD., priority 2020, published 2023).

Test system: ND3 neuronal cell line
Assay: Measurement of nerve growth stimulation effect (neurite bearing assay, neurite length assay, number of cells)
Assay type: cell-based
Details: relative cell number, DMSO well = 1; for viability at 1 µM / viability at 3 µM / viability at 5 µM / viability at 10 µM / viability at 30 µM / viability at 100 µM: 6 hours; for Number of cells: ND3 cells, 6 h
Experimental: To evaluate the nerve growth stimulation effect, neurite bearing assay (proportion of neurite-bearing cells) and neurite length assay (neurite length) were analyzed with reference to the method of Topalli et al. (Brain Research 1030 (2004), pp. 116-124).
An ND3 neuronal cell line (European Collection of Authenticated Cell Cultures) was seeded in a DMEM medium containing 10% fetal bovine serum (0.6×10^4 cells/1 mL) in a 24-well plate. 24 hours later, the medium of seeded cells was removed, and a solution in which the compound of the present disclosure that was sequentially diluted in dimethyl sulfoxide (DMSO) was adjusted in DIEM containing 0.1% bovine serum albumin so that the DMSO final concentration was 0.1%, was added to cells (evaluation performed in duplicate). After six hours from the addition, the proportion of neurite-bearing cells (the number of cells having a neurite longer than the diameter of the cell body/number of total cells), and the neurite length per cell were analyzed. The number of total cells, proportion of neurite-bearing cells, and neurite length per cell were analyzed using a MetaMorph Neurite Outgrowth Application Module (Molecular Devices Japan K.K.). The number of cells was defined as the relative cell number, taking the number of cells per well containing DMSO as 1. The relative activity of each compound when the maximum activity of 3-(15-methoxypentadecyl)-2,4,4-trimethylcyclohexa-2-en-1-one (compound 24) in each test was defined as 1 is shown (Table 9). For the compounds for which multiple tests were conducted, the average value was shown. Data with a number of cells of 0.5 or more was also used. Accordingly, if the number of cells was less than 0.5, the neurite length per cell and the proportion of neurite-bearing cells were defined as “-”.

Number of cells (1 μM compound) | Number of cells (3 μM compound) | Number of cells (5 μM compound) | Number of cells (10 μM compound) | Number of cells (30 μM compound) | Number of cells (100 μM compound) | SMILES | viability at 1 µM | viability at 3 µM | viability at 5 µM | viability at 10 µM | viability at 30 µM | viability at 100 µM
– | – | – | – | – | – | CC1=C(CCCCCCCCCCCCCCCOC(F)(F)F)C(C)(C)CCC1=O [Compound 49, 2,4,4-trimethyl-3-(15-(trifluoromethoxy)pentadecyl)-cyclohex-2-en-1-one] | 96% | 100% | 101% | 101% | 103% | 108%
– | – | – | – | – | – | COC(C)(C)CCCCCCCCCCCCCCC1=C(C)C(O)CCC1(C)C (stereo not drawn) [Compound 47, 3-(15-methoxy-15-methylhexadecyl)-2,4,4-trimethylcyclohex-2-en-1-ol] | 98% | 91% | 85% | 89% | 88% | 87%
– | – | – | – | – | – | COCCCCCCCCCCCCC1=C(C)C(=O)CCC1(C)C [Compound 11, 3-(12-methoxydodecyl)-2,4,4-trimethylcyclohex-2-en-1-one] | 96% | 96% | 83% | 82% | 62% | 70%
– | – | – | – | – | – | CC1=C(CCCCCCCCCCCCCO)C(C)(C)CCC1=O [Compound 2, 3-(13-hydroxytridecyl)-2,4,4-trimethylcyclohex-2-en-1-one, reference compound] | 113% | 102% | 96% | 96% | 19% | 9%
– | – | – | – | – | – | CCOCCCCCCCCCCCCCCCCC1=C(C)C(=O)CCC1(C)C [Compound 30, 3-(16-ethoxyhexadecyl)-2,4,4-trimethylcyclohex-2-en-1-one] | 88% | 91% | 83% | 87% | 95% | 98%
0.84 | 0.91 | 0.91 | 0.86 | 0.79 | 0.73 | COCCCCCCCCCCCCC1=C(C)C(=O)CC1(C)C [Compound 70, 3-(12-methoxydodecyl)-2,4,4-trimethylcyclopent-2-en-1-one] | – | – | – | – | – | –
– | – | – | – | – | – | COCCCCCCCCCCCCCCCC1=C(I)C(=O)CCC1(C)C [Compound 40, 2-iodo-3-(15-methoxypentadecyl)-4,4-dimethylcyclohex-2-en-1-one] | 94% | 104% | 97% | 93% | 103% | 98%
– | – | – | – | – | – | CC1=C(CCCCCCCCCCCCCCCOC(C)C)C(C)(C)CCC1=O [Compound 26, 3-(15-isopropoxypentadecyl)-2,4,4-trimethylcyclohex-2-en-1-one] | 102% | 100% | 93% | 90% | 98% | 101%
– | – | – | – | – | – | COCCCCCCCCCCCCCCCC1=C(C)C(=O)CCC12CC2 [Compound 44, 4-(15-methoxypentadecyl)-5-methylspiro[2,5]oct-4-en-6-one] | 83% | 90% | 82% | 75% | 91% | 89%
– | – | – | – | – | – | CCCOCCCCCCCCCCCCC1=C(C)C(=O)CCC1(C)C [Compound 14, 2,4,4-trimethyl-3-(12-propoxydodecyl)cyclohex-2-en-1-one] | 98% | 98% | 91% | 95% | 95% | 75%
– | – | – | – | – | – | CC1=C(CCCCCCCCCCCCCCC(N)=O)C(C)(C)CCC1=O [Compound 32, 15-(2,6,6-trimethyl-3-oxocyclohex-1-en-1-yl)pentadecanamide] | 92% | 93% | 81% | 81% | 54% | 9%
0.91 | 0.86 | 0.84 | 0.82 | 0.61 | 0.09 | CCOCCCCCCCCCCCCCCC1=C(C)C(=O)CC1(C)C [Compound 73, 2,4,4-trimethyl-3-(14-ethoxytetradecyl)cyclopent-2-en-1-one] | – | – | – | – | – | –
0.92 | 0.89 | 0.83 | 0.78 | 0.91 | 0.91 | COCCCCCCCCCCCCCCCC1=C(C(C)C)C(=O)CCC1(C)C [Compound 62, 2-isopropyl-3-(15-methoxypentadecyl)-4,4-dimethylcyclohex-2-en-1-one] | – | – | – | – | – | –
0.89 | 0.89 | 0.75 | 0.80 | 0.70 | 0.47 | COCCCCCCCCCCCCCCCC1=C(C)C(=O)CC1(C)C [Compound 69, 3-(15-methoxypentadecyl)-2,4,4-trimethylcyclopent-2-en-1-one] | – | – | – | – | – | –
0.92 | 0.89 | 0.80 | 0.75 | 0.94 | 0.93 | COCCCCCCCCCCCCCCCC1=C(C)C(=NO)CCC1(C)C [Compound 67, 3-(15-methoxypentadecyl)-2,4,4-trimethylcyclohex-2-en-1-one oxime] | – | – | – | – | – | –
– | – | – | – | – | – | CC1=C(CCCCCCCCCCCCCCCCOC(C)C)C(C)(C)CCC1=O [Compound 31, 3-(16-isopropoxyhexadecyl)-2,4,4-trimethylcyclohex-2-en-1-one] | 99% | 93% | 75% | 77% | 84% | 93%
– | – | – | – | – | – | CNC(=O)CCCCCCCCCCCCCCC1=C(C)C(=O)CCC1(C)C [Compound 33, N-methyl-15-(2,6,6-trimethyl-3-oxocyclohex-1-en-1-yl)pentadecanamide] | 92% | 90% | 83% | 86% | 91% | 80%
– | – | – | – | – | – | COCCCCCCCCCCCCCCC1=C(C)C(=O)CCC1(C)C [Compound 21, 3-(14-methoxytetradecyl)-2,4,4-trimethylcyclohex-2-en-1-one] | 104% | 111% | 102% | 103% | 82% | 96%
– | – | – | – | – | – | CCOCCCCCCCCCCCCCC1=C(C)C(=O)CCC1(C)C [Compound 17, 3-(13-ethoxytridecyl)-2,4,4-trimethylcyclohex-2-en-1-one] | 99% | 105% | 97% | 104% | 72% | 81%
– | – | – | – | – | – | CNC(=O)OCCCCCCCCCCCCCCCC1=C(C)C(=O)CCC1(C)C [Compound 55, 15-(2,6,6-trimethyl-3-oxocyclohex-1-en-1-yl)pentadecylmethylcarbamate] | 105% | 102% | 85% | 85% | 69% | 25%
– | – | – | – | – | – | CC1=C(CCCCCCCCCCCCCCCOCc2ccccc2)C(C)(C)CCC1=O [Compound 52, 3-(15-(benzyloxy)pentadecyl)-2,4,4-trimethylcyclohex-2-en-1-one] | 105% | 100% | 95% | 96% | 90% | 96%
– | – | – | – | – | – | CC1=C(CCCCCCCCCCCCOC(C)C)C(C)(C)CCC1=O [Compound 13, 3-(12-isopropoxydodecyl)-2,4,4-trimethylcyclohex-2-en-1-one] | 91% | 87% | 75% | 73% | 34% | 18%
0.87 | 0.94 | 0.87 | 0.79 | 0.39 | 0.07 | CCCOCCCCCCCCCCCCC1=C(C)C(=O)CC1(C)C [Compound 71, 2,4,4-trimethyl-3-(12-propoxydodecyl)cyclopent-2-en-1-one] | – | – | – | – | – | –
– | – | – | – | – | – | CC1=C(CCCCCCCCCCCCCCCOC(=O)c2ccccc2)C(C)(C)CCC1=O [Compound 53, 15-(2,6,6-trimethyl-3-oxocyclohex-1-en-1-yl)pentadecyl benzoate] | 91% | 95% | 94% | 96% | 105% | 115%
